The term IC50 denotes the midpoint of a concentration-inhibition curve.

For one assay, the system named is bacterial collagenase. To be noted: gel exposed to bacterial collagenase plus 10 mM EDTA, EDTA then neutralized with Ca2+; FIG. 8B. On the procedure:
(§1) Collagen-degrading enzyme preparations. A collagenolytic enzyme preparation from Clostridium histolyticum (Collagenase type I; Worthington Biochemical Corp, Freehold, N.J.) was used to produce fragmentation of the collagen. […] The bacterial enzyme preparation cleaves intact collagen at numerous sites to produce low molecular weight fragments. Collagenolytic activity was quantified by exposing 1 mg of rat tail (monomeric) collagen to varying concentrations of enzyme preparation for 5 hours at 37° C. Intact collagen exposed to buffer alone served as control. At the end of the incubation period, the control collagen and enzyme-treated collagen were resolved on SDS-PAGE and stained with Coomassie brilliant blue. Laser densitometry was used to quantify α1(I) and α2(I) bands in the intact and digested preparations. […] Human basal cell carcinoma tissue was used as a source of collagen-degrading enzymes from human skin. Fresh tumor specimens obtained at surgery were cut into 2-mm pieces, and 6-8 tissue pieces incubated for 72 hours in 0.5 ml of Ca^2+-supplemented MCDB-153. Incubation was at 37° C. and 5% CO2. At the end of the incubation period, the culture fluid was obtained and used as the enzyme source.

For assay [1], the system named is collagen-degrading enzymes from human skin (basal cell carcinoma conditioned medium). How it is done: as §1
The subject of assay [2] is collagenolytic enzyme preparation from Clostridium histolyticum (Collagenase type I). On the procedure:
as §1

A further assay deals with human skin collagenase. As to the kind of experiment: Fibroblast contraction of collagen gels treated with human skin collagenase. The note with it: gels treated with human skin collagenase in the presence of 10 μg of aprotinin; FIG. 8B. In kind it is cell-based. On the procedure: Preparation of polymerized collagen gels. […] During this period, the collagen formed a polymerized gel.
Collagen-degrading enzyme preparations. […] Intact collagen exposed to buffer alone served as control. […] Incubation was at 37° C. and 5% CO2.

The target in a further assay is MMP-9 (Homo sapiens, UniProt P14780). To be noted: from Whittaker et al., Chem. Rev. 1999; cited from earlier work.
For the next assay, the target named is T1, MMP-2 (Homo sapiens, UniProt P08253).
T1 sequence (P08253 110-660): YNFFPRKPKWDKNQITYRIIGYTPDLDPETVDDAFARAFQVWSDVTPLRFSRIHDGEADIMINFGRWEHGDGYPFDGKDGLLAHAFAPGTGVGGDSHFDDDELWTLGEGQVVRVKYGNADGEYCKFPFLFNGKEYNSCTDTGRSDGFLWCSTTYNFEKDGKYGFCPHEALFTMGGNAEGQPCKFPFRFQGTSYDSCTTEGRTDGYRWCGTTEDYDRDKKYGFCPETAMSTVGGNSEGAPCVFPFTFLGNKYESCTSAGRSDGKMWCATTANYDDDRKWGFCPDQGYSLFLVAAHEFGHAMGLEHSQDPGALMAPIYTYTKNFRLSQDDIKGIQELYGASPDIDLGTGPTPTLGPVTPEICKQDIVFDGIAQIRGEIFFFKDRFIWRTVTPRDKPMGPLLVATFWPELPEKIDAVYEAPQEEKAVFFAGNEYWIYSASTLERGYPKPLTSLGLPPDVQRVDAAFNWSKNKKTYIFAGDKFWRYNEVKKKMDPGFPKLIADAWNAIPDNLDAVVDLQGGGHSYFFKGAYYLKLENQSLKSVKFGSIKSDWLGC
The note with it: from Whittaker et al., Chem. Rev. 1999; cited from earlier work.

MMP-9, sequence (P14780 94-707): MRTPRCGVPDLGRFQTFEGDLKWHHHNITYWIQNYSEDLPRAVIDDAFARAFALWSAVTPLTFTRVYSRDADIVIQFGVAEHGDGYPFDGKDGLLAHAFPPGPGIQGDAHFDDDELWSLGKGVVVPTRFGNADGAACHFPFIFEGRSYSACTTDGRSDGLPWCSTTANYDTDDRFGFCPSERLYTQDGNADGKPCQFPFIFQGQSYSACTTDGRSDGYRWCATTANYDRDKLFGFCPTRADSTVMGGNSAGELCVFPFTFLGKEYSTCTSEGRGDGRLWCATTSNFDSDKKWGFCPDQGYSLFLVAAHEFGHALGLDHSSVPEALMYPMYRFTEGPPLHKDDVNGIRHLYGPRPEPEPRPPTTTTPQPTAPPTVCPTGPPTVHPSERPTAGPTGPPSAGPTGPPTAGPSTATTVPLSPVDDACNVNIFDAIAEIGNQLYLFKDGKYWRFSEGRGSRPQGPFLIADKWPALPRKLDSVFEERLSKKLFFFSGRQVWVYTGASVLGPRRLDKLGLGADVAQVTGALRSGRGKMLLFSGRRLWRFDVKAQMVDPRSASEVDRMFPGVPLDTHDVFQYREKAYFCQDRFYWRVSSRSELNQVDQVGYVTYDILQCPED

Take `O=C(O)CN(CCN(CC(=O)O)CC(=O)O)CC(=O)O` [EDTA, ethylene diamine tetraacetic acid]: in the assay with bacterial collagenase, the collagen contraction result is given as “no collagen contraction”. In addition, the zymographic activities entry in assay [1] (10 mM EDTA in the incubation buffer, gelatin, collagen and β-casein) is “suppressed zymographic activities”. Besides, the collagen-degradation entry in assay [1] (10 mM EDTA in the reaction mixture) is on record as “suppressed collagen-degradation”. Moreover, the reactivity in zymography entry in assay [2] (10 mM EDTA included in the overnight incubation buffer, gelatin and monomeric collagen) is on record as “Reactivity was lost”. In assay [2] (10 mM EDTA included in the reaction mixture, 1 mg rat tail monomeric collagen, 5 hours at 37° C.), the collagen breakdown entry is “no detectable collagen breakdown”.
Turning to aprotinin, the collagen contraction entry in the assay on human skin collagenase is reported as “not”.
For the molecule `CN1C(=O)N(C[C@H](C(=O)NO)[C@@H](CC2CCCC2)C(=O)N2CCCCC2)C(=O)C1(C)C` [compound 52], the values for the IC50 at MMP-9 and on MMP-2 were 0.059 µM and 0.154 µM, respectively.
